Read-outs that look alike come from different tables or passages of the source.
Legend:
TNFα = test: IRAK4 Monocyte TNFα Cell Based Assay; set-up: species or system human; conditions: read-out: EC50 MONO TNF HTRF
Method in brief: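 TNFα release quantified by HTRF (cryptate/XL665 antibody pair, overnight at RT) after 1 h compound pre-incubation (0.1% DMSO) and 4 h LPS challenge at 50 pg/ml, 37 °C, 5,000 monocytes per well. Signal ratio normalised between unstimulated (0%) and stimulated (100%) controls.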

IRAK4 enzyme = IRAK4 enzyme (Homo sapiens (Human), UniProt Q9NWZ3); test: IRAK4 Biochemical Assay (TR-FRET, STK1 KinEASE)
Sequence of IRAK4 enzyme (Q9NWZ3 whole entry): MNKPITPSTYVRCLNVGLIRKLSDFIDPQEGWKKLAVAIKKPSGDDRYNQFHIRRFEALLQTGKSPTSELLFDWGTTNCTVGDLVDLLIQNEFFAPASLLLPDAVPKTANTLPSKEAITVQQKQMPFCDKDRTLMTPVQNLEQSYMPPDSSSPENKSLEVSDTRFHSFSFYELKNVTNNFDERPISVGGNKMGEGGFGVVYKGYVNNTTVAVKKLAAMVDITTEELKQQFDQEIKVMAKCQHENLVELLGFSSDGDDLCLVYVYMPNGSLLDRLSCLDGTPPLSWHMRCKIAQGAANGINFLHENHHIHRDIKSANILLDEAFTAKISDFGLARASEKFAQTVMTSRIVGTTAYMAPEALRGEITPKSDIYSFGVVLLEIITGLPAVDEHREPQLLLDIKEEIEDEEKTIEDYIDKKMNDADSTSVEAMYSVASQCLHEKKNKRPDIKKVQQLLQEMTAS
Method in brief: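 TR-FRET endpoint (KinEASE STK1): phosphopeptide detected with cryptate antibody and tracer after EDTA quench, ratio 665/615 nm, normalized to no-inhibitor wells as % inhibition. Reaction: 0.75 nM IRAK4, […] peptide, 500 μM ATP, pH 7.0 HEPES, 120 min room temperature, after 15 min compound preincubation with enzyme.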

[1] = Homo sapiens, Monocyte, human monocytes, second part of Table 2, compounds 33-343, unit inferred

| Molecule | EC50 (TNFα; [1]) [nM] | IC50 (IRAK4 enzyme) [nM] | EC50 (TNFα; Homo sapiens, Monocyte) [nM] | EC50 (TNFα; human monocytes, second part of Table 2, compounds 33-343, unit inferred) [nM] | IC50 (IRAK4 enzyme; second part of Table 2, compounds 33-343, unit inferred, read-out: IC50 IRAK4-HTBS) [nM] |
| --- | --- | --- | --- | --- | --- |
| CC(=O)N[C@H]1CC[C@H](c2nnc(-c3cnc(-c4ccc5cc(C#N)cnn45)cc3N[C@H](C)C#N)s2)CC1 [Example 316, N-((1R,4r)-4-(5-(4-(((R)-1-cyanoethyl)amino)-6-(3-cyanopyrrolo[1,2-b]pyridazin-7-yl)pyridin-3-yl)-1,3,4-thiadiazol-2-yl)cyclohexyl)acetamide] | 5.3 | 0.59 | – | – | – |
| [2H]C([2H])([2H])C(O)(CCc1nnc(-c2cnc(-c3ccc4cc(C#N)cnn34)cc2NC(C)C)s1)C([2H])([2H])[2H] [Example 317, 7-(5-(5-(3-hydroxy-3-(methyl-d3)butyl-4,4,4-d3)-1,3,4-thiadiazol-2-yl)-4-(isopropylamino)pyridin-2-yl)pyrrolo[1,2-b]pyridazine-3-carbonitrile] | 4.4 | 0.6 | – | – | – |
| CC(C)Nc1cc(-c2ccc3cc(C#N)cnn23)ncc1-c1nnc(CC(=O)O)s1 [Example 319, 2-(5-(6-(3-cyanopyrrolo[1,2-b]pyridazin-7-yl)-4-(isopropylamino)pyridin-3-yl)-1,3,4-thiadiazol-2-yl)acetic acid] | 126 | 1.68 | – | – | – |
| CC(C)Nc1cc(-c2ccc3cc(C#N)cnn23)ncc1-c1nnc(CC(C)(C)O)s1 [Example 320, 7-(5-(5-(2-hydroxy-2-methylpropyl)-1,3,4-thiadiazol-2-yl)-4-(isopropylamino)pyridin-2-yl)pyrrolo[1,2-b]pyridazine-3-carbonitrile] | – | 1.18 | 68.3 | – | – |
| N#Cc1cnn2c(-c3cc(NC4CCOCC4)c(-c4nnc(C56CCC(N)(CC5)CC6)s4)cn3)ccc2c1 [Example 336, 7-(5-(5-(4-aminobicyclo[2.2.2]octan-1-yl)-1,3,4-thiadiazol-2-yl)-4-((tetrahydro-2H-pyran-4-yl)amino)pyridin-2-yl)pyrrolo[1,2-b]pyridazine-3-carbonitrile] | – | 0.7 | 11 | – | – |
| (S)-7-(5-(5-(2-(aminomethyl)pyrrolidine-1-carbonyl)-1,3,4-thiadiazol-2-yl)-4-(isopropylamino)pyridin-2-yl)pyrrolo[1,2-b]pyridazine-3-carbonitrile [Compound 242] | – | – | – | 752 | 2.76 |

Source: patent US11046686B2, “Thiadiazole IRAK4 compounds” (Gilead Sciences, Inc., priority 2018, dated 2021)
